Results published in patent US20260166162A1, “CARBON CHAIN SUBSTANCE FOR REGULATING TRANSMEMBRANE TRANSPORT AND FLUIDITY OF CELL MEMBRANES, AND PREPARATION AND USE THEREOF” (priority 2022, published 2026).

Assays:
[1] = tested on: 293T cells; assay: Cellular phagocytosis of DiD-loaded lipid vesicles (nano-drugs) by 293T cells (Example II-51, Table II-29); format: cell-based; conditions: 293T cells pretreated 4 h, DiD lipid vesicles 2 h, n=3, untreated control 226.46 ± 1.26
[2] = tested on: Hela cells; assay: Cell membrane fluidity (Laurdan fluorescence recovery) in Hela cells; format: cell-based

| Compound | Fluorescence intensity ([1]; 2 nM) | Fluorescence intensity ([1]; 5 nM) | Fluorescence intensity ([1]; 10 nM) | Fluorescence intensity ([1]; 50 nM) | Fluorescence intensity ([1]; 100 nM) | Fluorescence intensity ([1]; 1 uM) | Fluorescence intensity ([1]; 10 uM) | Fluorescence intensity ([1]; 50 uM) | Fluorescence intensity ([1]; 100 uM) | Fluorescence recovery rate % ([2]; 2 nM, 20 s) | Fluorescence recovery rate % ([2]; 2 nM, 40 s) | Fluorescence recovery rate % ([2]; 2 nM, 60 s) | Fluorescence recovery rate % ([2]; 2 nM, 80 s) | Fluorescence recovery rate % ([2]; 5 nM, 20 s) | Fluorescence recovery rate % ([2]; 5 nM, 40 s) | Fluorescence recovery rate % ([2]; 5 nM, 60 s) | Fluorescence recovery rate % ([2]; 5 nM, 80 s) | Fluorescence recovery rate % ([2]; 10 nM, 20 s) | Fluorescence recovery rate % ([2]; 10 nM, 40 s) | Fluorescence recovery rate % ([2]; 10 nM, 60 s) | also measured |
| --- | --- | --- | --- | --- | --- | --- | --- | --- | --- | --- | --- | --- | --- | --- | --- | --- | --- | --- | --- | --- | --- |
| C/C=C/C(=O)O [Crotonic acid] | 157.30 ± 20.43 | 159.29 ± 0.43 | 94.34 ± 0.43 | 51.34 ± 0.43 | 59.65 ± 1.57 | 458.20 ± 20.41 | 326.69 ± 20.40 | 200.73 ± 10.31 | 218.13 ± 8.22 | – | – | – | – | – | – | – | – | – | – | – | – |
| CCCCCCCCC=CCCCCCCCC(=O)OCC(O)C1OC(=O)C(O)=C1O (stereo not drawn) [Vc-oleic acid] | – | – | – | – | – | – | – | – | – | 61.48% | 62.33% | 63.41% | 64.57% | 61.87% | 62.99% | 63.47% | 63.21% | 63.72% | 63.75% | 64.67% | Fluorescence recovery rate % ([2]; 10 nM, 80 s): 65.92%; Fluorescence recovery rate % ([2]; 50 nM, 20 s): 62.43%; Fluorescence recovery rate % ([2]; 50 nM, 40 s): 62.62%; Fluorescence recovery rate % ([2]; 50 nM, 60 s): 63.37%; Fluorescence recovery rate % ([2]; 50 nM, 80 s): 64.24%; Fluorescence recovery rate % ([2]; 50 μM, 20 s): 62.54%; Fluorescence recovery rate % ([2]; 50 μM, 40 s): 67.11%; Fluorescence recovery rate % ([2]; 50 μM, 60 s): 74.55%; Fluorescence recovery rate % ([2]; 50 μM, 80 s): 76.57%; Fluorescence recovery rate % ([2]; 100 μM, 20 s): 61.66%; Fluorescence recovery rate % ([2]; 100 μM, 40 s): 73.65%; Fluorescence recovery rate % ([2]; 100 μM, 60 s): 77.32%; Fluorescence recovery rate % ([2]; 100 μM, 80 s): 78.61% |
| CCCCCCCCCCCC(=O)NCCCCC(N)C(=O)O (stereo not drawn) [Lys-C12] | 175.30 ± 15.23 | 103.11 ± 10.33 | 49.05 ± 5.26 | 24.16 ± 3.36 | 25.45 ± 5.22 | 367.61 ± 27.11 | 417.28 ± 17.23 | 110.76 ± 8.54 | 104.90 ± 6.23 | – | – | – | – | – | – | – | – | – | – | – | – |
| CCC=CCC=CCC=CCCCCCCCC(=O)OCC1OC(O)C(O)C(O)C1O (stereo not drawn) [Glucose-linolenic acid] | – | – | – | – | – | – | – | – | – | 63.78% | 64.18% | 65.22% | 65.16% | 64.35% | 64.83% | 65.17% | 66.59% | 64.76% | 64.87% | 65.11% | Fluorescence recovery rate % ([2]; 10 nM, 80 s): 66.83%; Fluorescence recovery rate % ([2]; 50 nM, 20 s): 63.24%; Fluorescence recovery rate % ([2]; 50 nM, 40 s): 64.10%; Fluorescence recovery rate % ([2]; 50 nM, 60 s): 64.54%; Fluorescence recovery rate % ([2]; 50 nM, 80 s): 65.23%; Fluorescence recovery rate % ([2]; 50 μM, 20 s): 63.11%; Fluorescence recovery rate % ([2]; 50 μM, 40 s): 70.49%; Fluorescence recovery rate % ([2]; 50 μM, 60 s): 74.88%; Fluorescence recovery rate % ([2]; 50 μM, 80 s): 79.24%; Fluorescence recovery rate % ([2]; 100 μM, 20 s): 65.93%; Fluorescence recovery rate % ([2]; 100 μM, 40 s): 69.87%; Fluorescence recovery rate % ([2]; 100 μM, 60 s): 75.03%; Fluorescence recovery rate % ([2]; 100 μM, 80 s): 80.83% |
| CCCCCCCC/C=C\CCCCCCCC(=O)OCCOCC(OCCO)C1OCC(OCCO)C1OCCO (stereo not drawn) [Tween-80] | 45.04 | 32.41 | 21.85 | 17.28 | 11.89 | 152.11 | 103.58 | 18.48 | 13.34 ± 3.24 | – | – | – | – | – | – | – | – | – | – | – | – |
| CCCCCCCCCCCCCCCC(=O)OCC1OC(O)C(O)C(O)C1O (stereo not drawn) [Glucose-C16] | 134.65 ± 15.22 | 114.00 ± 11.02 | 94.34 ± 4.57 | 96.63 ± 6.54 | 172.88 ± 26.33 | 198.54 ± 8.55 | 170.16 ± 20.33 | 110.15 ± 10.22 | 104.90 ± 4.91 | – | – | – | – | – | – | – | – | – | – | – | – |
| O=C(O)CCCCCCCCCC(=O)OCC(O)C1OC(=O)C(O)=C1O (stereo not drawn) [VC-undecanedioic acid] | 121.02 | 92.26 | 78.76 ± 7.89 | 87.57 ± 5.57 | 96.31 ± 6.21 | 199.22 ± 19.26 | 217.49 ± 14.22 | 106.96 ± 5.64 | 110.44 ± 9.87 | – | – | – | – | – | – | – | – | – | – | – | – |
| adenosine monophosphate-linoleic acid | – | – | – | – | – | – | – | – | – | 62.11% | 62.98% | 64.26% | 68.17% | 63.44% | 64.22% | 65.78% | 66.39% | 63.22% | 63.48% | 64.42% | Fluorescence recovery rate % ([2]; 10 nM, 80 s): 65.93%; Fluorescence recovery rate % ([2]; 50 nM, 20 s): 64.25%; Fluorescence recovery rate % ([2]; 50 nM, 40 s): 64.66%; Fluorescence recovery rate % ([2]; 50 nM, 60 s): 65.33%; Fluorescence recovery rate % ([2]; 50 nM, 80 s): 66.23%; Fluorescence recovery rate % ([2]; 50 μM, 20 s): 64.44%; Fluorescence recovery rate % ([2]; 50 μM, 40 s): 70.73%; Fluorescence recovery rate % ([2]; 50 μM, 60 s): 74.64%; Fluorescence recovery rate % ([2]; 50 μM, 80 s): 80.57%; Fluorescence recovery rate % ([2]; 100 μM, 20 s): 63.22%; Fluorescence recovery rate % ([2]; 100 μM, 40 s): 67.48%; Fluorescence recovery rate % ([2]; 100 μM, 60 s): 75.42%; Fluorescence recovery rate % ([2]; 100 μM, 80 s): 79.93% |
